# From PubChem BioAssay AID212 (DTP/NCI, 2004)
# Several values for one entry are separate records, joined by “and”; a condition that tells them apart may be missing. Equal values may be shown once. Inconclusive results are not listed.
# Test system: BDF1 mice, colon carcinoma 38 sc, T/C %
# Experiment: NCI In Vivo Anticancer Drug Screen. Data for tumor model Colon Carcinoma 38 (subcutaneous) in B6D2F1 (BDF1) mice
# Method in brief: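 Mice with transplanted tumors are treated with compound or vehicle. Survival or tumor size is then measured in both groups. The ratio of treated to control gives the reported figure.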
# [1] = endpoint: median tumor weight (est.), dose: 20.0 mg/kg/injection, schedule: Q07DX002 (ip), vehicle: Klucel (hydroxypropylcellulose) (HPC), higher = larger tumour
# [2] = endpoint: median tumor weight (est.), dose: 40.0 mg/kg/injection, schedule: Q07DX002 (ip), vehicle: Klucel (hydroxypropylcellulose) (HPC), higher = larger tumour
# [3] = endpoint: median tumor weight (est.), dose: 100.0 mg/kg/injection, schedule: Q07DX002 (ip), vehicle: Klucel (hydroxypropylcellulose) (HPC), higher = larger tumour
# [4] = endpoint: median tumor weight (est.), dose: 200.0 mg/kg/injection, schedule: Q07DX002 (ip), vehicle: Klucel (hydroxypropylcellulose) (HPC), higher = larger tumour
smiles,measurement,setting,value
CC1CCC(NC(=O)N(CCCl)N=O)CC1 (configuration not stated),T/C,"endpoint: median survival time, dose: 3.3 mg/kg/injection, schedule: Q01DX010 (oral), vehicle: saline with Tween-80, higher = longer survival",115 % of control
same,T/C,"endpoint: median survival time, dose: 5.0 mg/kg/injection, schedule: Q04DX005 (ip), vehicle: other, higher = longer survival",93 % of control
same,T/C,"endpoint: median survival time, dose: 5.5 mg/kg/injection, schedule: Q01DX010 (oral), vehicle: saline with Tween-80, higher = longer survival",99 % of control
same,T/C,"endpoint: median survival time, dose: 9.0 mg/kg/injection, schedule: Q01DX010 (oral), vehicle: saline with Tween-80, higher = longer survival",100 % of control
same,T/C,"endpoint: median survival time, dose: 10.0 mg/kg/injection, schedule: Q04DX005 (ip), vehicle: other, higher = longer survival",122 % of control
same,T/C,"endpoint: median survival time, dose: 20.0 mg/kg/injection, schedule: Q04DX005 (ip), vehicle: other, higher = longer survival",153 % of control
same,T/C,"endpoint: median tumor weight (est.), dose: 4.0 mg/kg/injection, schedule: Q07DX002 (ip), vehicle: Klucel (hydroxypropylcellulose) (HPC), higher = larger tumour",61 % of control
same,T/C,"endpoint: median tumor weight (est.), dose: 8.0 mg/kg/injection, schedule: Q07DX002 (ip), vehicle: Klucel (hydroxypropylcellulose) (HPC), higher = larger tumour",53 % of control
same,T/C,"endpoint: median tumor weight (est.), dose: 16.0 mg/kg/injection, schedule: Q07DX002 (ip), vehicle: Klucel (hydroxypropylcellulose) (HPC), higher = larger tumour",64 % of control
same,T/C,"endpoint: median tumor weight (est.), dose: 32.0 mg/kg/injection, schedule: Q07DX002 (ip), vehicle: Klucel (hydroxypropylcellulose) (HPC), higher = larger tumour",18 % of control
COC1=C(C)C(=O)C2=C(C1=O)C(CO)N1C(C#N)C3CC4C(C1C2N1CCOC41)N3C (configuration not stated),T/C,"endpoint: median tumor weight (est.), dose: 0.25 mg/kg/injection, schedule: Q07DX002 (ip), vehicle: saline + alcohol, higher = larger tumour",67 % of control
same,T/C,"endpoint: median tumor weight (est.), dose: 0.5 mg/kg/injection, schedule: Q07DX002 (ip), vehicle: saline + alcohol, higher = larger tumour",109 % of control
same,T/C,"endpoint: median tumor weight (est.), dose: 2.0 mg/kg/injection, schedule: Q07DX002 (ip), vehicle: saline + alcohol, higher = larger tumour",153 % of control
same,T/C,"endpoint: median tumor weight (est.), dose: 4.0 mg/kg/injection, schedule: Q07DX002 (ip), vehicle: saline + alcohol, higher = larger tumour",87 % of control
CCCCOC(=O)/C=C(\Br)C(=O)OCCCC,T/C,"endpoint: median tumor weight (est.), dose: 25.0 mg/kg/injection, schedule: Q07DX002 (ip), vehicle: saline with Tween-80, higher = larger tumour",76 % of control and 98 % of control
same,T/C,"endpoint: median tumor weight (est.), dose: 50.0 mg/kg/injection, schedule: Q07DX002 (ip), vehicle: saline with Tween-80, higher = larger tumour",71 % of control and 85 % of control
same,T/C,"endpoint: median tumor weight (est.), dose: 100.0 mg/kg/injection, schedule: Q07DX002 (ip), vehicle: saline with Tween-80, higher = larger tumour",84 % of control and 91 % of control
same,T/C,"endpoint: median tumor weight (est.), dose: 200.0 mg/kg/injection, schedule: Q07DX002 (ip), vehicle: saline with Tween-80, higher = larger tumour",81 % of control and 85 % of control
same,T/C,"endpoint: median tumor weight (est.), dose: 400.0 mg/kg/injection, schedule: Q07DX002 (ip), vehicle: saline with Tween-80, higher = larger tumour",69 % of control
COC1C(C)OC(OC2CC(C)(O)Cc3cc4c(c(O)c32)C(=O)c2c(O)cc3c(c2C4=O)OC2OC3(C)C(O)C(N(C)C)C2O)C(OC)C1(C)OC (configuration not stated),T/C,"endpoint: median tumor weight (est.), dose: 0.62 mg/kg/injection, schedule: Q07DX002 (ip), vehicle: other, higher = larger tumour",53 % of control
same,T/C,"endpoint: median tumor weight (est.), dose: 1.25 mg/kg/injection, schedule: Q07DX002 (ip), vehicle: other, higher = larger tumour",81 % of control
same,T/C,"endpoint: median tumor weight (est.), dose: 5.0 mg/kg/injection, schedule: Q07DX002 (ip), vehicle: other, higher = larger tumour",83 % of control
same,T/C,"endpoint: median tumor weight (est.), dose: 10.0 mg/kg/injection, schedule: Q07DX002 (ip), vehicle: other, higher = larger tumour",89 % of control
CCC(=O)O[C@H]1CC[C@H]2[C@@H]3CCC4=CC(=O)CC[C@]4(C)[C@H]3CC[C@]12C,T/C,[1],72 % of control
same,T/C,[2],71 % of control and 81 % of control
same,T/C,"endpoint: median tumor weight (est.), dose: 40.0 mg/kg/injection, schedule: Q07DX002 (ip), vehicle: suspension in saline, higher = larger tumour",60 % of control
same,T/C,"endpoint: median tumor weight (est.), dose: 80.0 mg/kg/injection, schedule: Q07DX002 (ip), vehicle: suspension in saline, higher = larger tumour",93 % of control
same,T/C,"endpoint: median tumor weight (est.), dose: 160.0 mg/kg/injection, schedule: Q07DX002 (ip), vehicle: suspension in saline, higher = larger tumour",86 % of control
same,T/C,"endpoint: median tumor weight (est.), dose: 320.0 mg/kg/injection, schedule: Q07DX002 (ip), vehicle: suspension in saline, higher = larger tumour",99 % of control
same,T/C,"endpoint: median tumor weight (est.), dose: 640.0 mg/kg/injection, schedule: Q07DX002 (ip), vehicle: Klucel (hydroxypropylcellulose) (HPC), higher = larger tumour",89 % of control and 100 % of control and 101 % of control
same,T/C,"endpoint: median tumor weight (est.), dose: 640.0 mg/kg/injection, schedule: Q07DX002 (ip), vehicle: suspension in saline, higher = larger tumour",86 % of control
C=C1C(=O)OC2CC1CCC1(C)OC1CCC(C)=CCCC2(C)O (configuration not stated),T/C,"endpoint: median tumor weight (est.), dose: 3.75 mg/kg/injection, schedule: Q07DX002 (ip), vehicle: Klucel (hydroxypropylcellulose) (HPC), higher = larger tumour",155 % of control
same,T/C,"endpoint: median tumor weight (est.), dose: 7.5 mg/kg/injection, schedule: Q07DX002 (ip), vehicle: Klucel (hydroxypropylcellulose) (HPC), higher = larger tumour",155 % of control
same,T/C,"endpoint: median tumor weight (est.), dose: 30.0 mg/kg/injection, schedule: Q07DX002 (ip), vehicle: Klucel (hydroxypropylcellulose) (HPC), higher = larger tumour",99 % of control
same,T/C,"endpoint: median tumor weight (est.), dose: 60.0 mg/kg/injection, schedule: Q07DX002 (ip), vehicle: Klucel (hydroxypropylcellulose) (HPC), higher = larger tumour",123 % of control
CCNC(=O)[B-][N+](C)(C)C,T/C,[3],116 % of control
same,T/C,[4],67 % of control
same,T/C,"endpoint: median tumor weight (est.), dose: 400.0 mg/kg/injection, schedule: Q07DX002 (ip), vehicle: Klucel (hydroxypropylcellulose) (HPC), higher = larger tumour",113 % of control and 96 % of control
C=C(C)[C@H]1Cc2c(ccc3c2O[C@@H]2COc4cc(OC)c(OC)cc4[C@@H]2C3=O)O1,T/C,"endpoint: median tumor weight (est.), dose: 2.0 mg/kg/injection, schedule: Q07DX003 (ip), vehicle: saline with Tween-80, higher = larger tumour",230 % of control
same,T/C,"endpoint: median tumor weight (est.), dose: 8.0 mg/kg/injection, schedule: Q07DX003 (ip), vehicle: saline with Tween-80, higher = larger tumour",98 % of control
COc1cc2c3c(cccc3c1)C(=O)N(CCN(C)C)C2=O,T/C,"endpoint: median tumor weight (est.), dose: 10.0 mg/kg/injection, schedule: Q07DX002 (ip), vehicle: saline with Tween-80, higher = larger tumour",86 % of control and 103 % of control
same,T/C,"endpoint: median tumor weight (est.), dose: 40.0 mg/kg/injection, schedule: Q07DX002 (ip), vehicle: saline with Tween-80, higher = larger tumour",73 % of control and 92 % of control
same,T/C,"endpoint: median tumor weight (est.), dose: 80.0 mg/kg/injection, schedule: Q07DX002 (ip), vehicle: saline with Tween-80, higher = larger tumour",72 % of control
same,T/C,"endpoint: median tumor weight (est.), dose: 160.0 mg/kg/injection, schedule: Q07DX002 (ip), vehicle: saline with Tween-80, higher = larger tumour",73 % of control
c1cc2n(n1)CCN2,T/C,"endpoint: median tumor weight (est.), dose: 6.25 mg/kg/injection, schedule: Q07DX002 (ip), vehicle: saline, higher = larger tumour",76 % of control
same,T/C,"endpoint: median tumor weight (est.), dose: 12.5 mg/kg/injection, schedule: Q07DX003 (ip), vehicle: saline, higher = larger tumour",110 % of control
same,T/C,"endpoint: median tumor weight (est.), dose: 25.0 mg/kg/injection, schedule: Q01DX005 (ip), vehicle: saline, higher = larger tumour",86 % of control
same,T/C,"endpoint: median tumor weight (est.), dose: 25.0 mg/kg/injection, schedule: Q04DX003 (ip), vehicle: saline, higher = larger tumour",84 % of control
same,T/C,"endpoint: median tumor weight (est.), dose: 25.0 mg/kg/injection, schedule: Q07DX002 (ip), vehicle: saline, higher = larger tumour",94 % of control
same,T/C,"endpoint: median tumor weight (est.), dose: 25.0 mg/kg/injection, schedule: Q07DX003 (ip), vehicle: saline, higher = larger tumour",92 % of control
same,T/C,"endpoint: median tumor weight (est.), dose: 50.0 mg/kg/injection, schedule: Q01DX005 (ip), vehicle: saline, higher = larger tumour",36 % of control
same,T/C,"endpoint: median tumor weight (est.), dose: 50.0 mg/kg/injection, schedule: Q07DX002 (ip), vehicle: saline, higher = larger tumour",166 % of control
same,T/C,"endpoint: median tumor weight (est.), dose: 50.0 mg/kg/injection, schedule: Q07DX003 (ip), vehicle: saline, higher = larger tumour",74 % of control
same,T/C,"endpoint: median tumor weight (est.), dose: 100.0 mg/kg/injection, schedule: Q01DX005 (ip), vehicle: saline, higher = larger tumour",44 % of control
same,T/C,"endpoint: median tumor weight (est.), dose: 100.0 mg/kg/injection, schedule: Q04DX003 (ip), vehicle: saline, higher = larger tumour",42 % of control
same,T/C,"endpoint: median tumor weight (est.), dose: 100.0 mg/kg/injection, schedule: Q07DX003 (ip), vehicle: saline, higher = larger tumour",65 % of control
same,T/C,"endpoint: median tumor weight (est.), dose: 200.0 mg/kg/injection, schedule: Q01DX005 (ip), vehicle: saline, higher = larger tumour",47 % of control
same,T/C,"endpoint: median tumor weight (est.), dose: 200.0 mg/kg/injection, schedule: Q04DX003 (ip), vehicle: saline, higher = larger tumour",97 % of control
same,T/C,"endpoint: median tumor weight (est.), dose: 200.0 mg/kg/injection, schedule: Q07DX003 (ip), vehicle: saline, higher = larger tumour",66 % of control
same,T/C,"endpoint: median tumor weight (est.), dose: 400.0 mg/kg/injection, schedule: Q04DX003 (ip), vehicle: saline, higher = larger tumour",75 % of control
same,T/C,"endpoint: median tumor weight (est.), dose: 400.0 mg/kg/injection, schedule: Q07DX003 (ip), vehicle: saline, higher = larger tumour",56 % of control
C[C@]12CC[C@@H]3c4ccc(O)cc4CC[C@H]3[C@@H]1CC[C@@H]2O,T/C,"endpoint: median tumor weight (est.), dose: 6.25 mg/kg/injection, schedule: Q07DX002 (ip), vehicle: Klucel (hydroxypropylcellulose) (HPC), higher = larger tumour",83 % of control
same,T/C,"endpoint: median tumor weight (est.), dose: 12.5 mg/kg/injection, schedule: Q07DX002 (ip), vehicle: Klucel (hydroxypropylcellulose) (HPC), higher = larger tumour",108 % of control and 249 % of control
same,T/C,"endpoint: median tumor weight (est.), dose: 25.0 mg/kg/injection, schedule: Q07DX002 (ip), vehicle: Klucel (hydroxypropylcellulose) (HPC), higher = larger tumour",282 % of control and 99 % of control
same,T/C,"endpoint: median tumor weight (est.), dose: 50.0 mg/kg/injection, schedule: Q07DX002 (ip), vehicle: Klucel (hydroxypropylcellulose) (HPC), higher = larger tumour",260 % of control
same,T/C,[3],282 % of control
same,T/C,[4],117 % of control and 271 % of control
c1ccc2c(NCCCCCCNc3c4ccccc4nc4ccccc34)c3ccccc3nc2c1,T/C,"endpoint: median tumor weight (est.), dose: 1.25 mg/kg/injection, schedule: Q07DX002 (ip), vehicle: Klucel (hydroxypropylcellulose) (HPC), higher = larger tumour",109 % of control and 95 % of control
same,T/C,"endpoint: median tumor weight (est.), dose: 2.5 mg/kg/injection, schedule: Q07DX002 (ip), vehicle: Klucel (hydroxypropylcellulose) (HPC), higher = larger tumour",122 % of control and 97 % of control
same,T/C,"endpoint: median tumor weight (est.), dose: 5.0 mg/kg/injection, schedule: Q07DX002 (ip), vehicle: Klucel (hydroxypropylcellulose) (HPC), higher = larger tumour",70 % of control
same,T/C,[1],70 % of control and 76 % of control
same,T/C,[2],72 % of control
